Laboratory results as given in US20060276464A1, “Diarylsulfone sulfonamides and use thereof” (Wyeth, priority 2005, published 2006).
Like-named read-outs stand apart in the source and are kept apart here.

Assays:
[1] = molecular target: T1, SFRP-1 (Homo sapiens, UniProt Q8N474); assay: Fluorescence polarization binding assay (competitive displacement of a probe compound from SFRP-1); conditions: fluorescence anisotropy, 45 nM SFRP-1, 20 nM probe;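 also: test compound competes with a fluorescent probe held by SFRP-1, seen as a drop in probe anisotropy after incubation in darkness, with anisotropy as function of rising compound dose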
T1 sequence (Q8N474 32-314): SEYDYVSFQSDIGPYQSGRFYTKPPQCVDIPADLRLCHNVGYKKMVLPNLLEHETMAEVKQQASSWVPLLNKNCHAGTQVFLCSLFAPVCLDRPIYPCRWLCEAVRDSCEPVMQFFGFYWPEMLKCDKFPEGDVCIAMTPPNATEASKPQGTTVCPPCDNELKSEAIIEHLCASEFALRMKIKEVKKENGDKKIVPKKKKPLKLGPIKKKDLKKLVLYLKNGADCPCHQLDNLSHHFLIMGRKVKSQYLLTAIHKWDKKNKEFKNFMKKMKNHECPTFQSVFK

[2] = molecular target: T1, SFRP-1; assay: Cell-based assay for in vitro measurement of SFRP-1/SARP2 antagonist activity (U2OS cells co-transfected with 16x TCF-tk-Luciferase reporter, Wnt and hSFRP-1); conditions: for fold induction at 15 µM / fold induction at 10 µM: U2OS; for fold induction at 10 µM: read-out: Fold Induction with SFRP-1, U2OS cells, single dose 10 μM, luciferase reporter, fold induction over SFRP-1 control;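 as to all read-outs here: U2OS cells co-transfected with a TCF-tk luciferase reporter, a Wnt vector, hSFRP-1 or empty vector and CMV-βgal, luciferase luminescence read in cell lysates alongside βgal activity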
[3] = read-out: Fold Induction with SFRP-1, Conc 15 μM, single dose, luciferase reporter, fold induction over SFRP-1 control, cells with SFRP-1
[4] = read-out: Fold Induction without SFRP-1, Conc 15 μM, single dose, luciferase reporter, cells without SFRP-1 (specificity control)
[5] = read-out: Fold Induction with SFRP-1, Conc 15 μM, with SFRP-1, fold induction over SFRP-1 control, single dose
[6] = read-out: Fold Induction without SFRP-1, Conc 15 μM, without SFRP-1, single dose

## CC(C)c1ccc(S(=O)(=O)c2cccc3cccnc23)cc1S(=O)(=O)NCCc1ccccn1 [Example 510, 2-isopropyl-N-(2-pyridin-2-ylethyl)-5-(quinolin-8-ylsulfonyl)benzenesulfonamide]
[1]
  IC50: 0.9 µM
[2]; [3]
  fold induction at 15 µM: 1.9
[2]; [4]
  fold induction at 15 µM: 1.1

## Cc1ccc(S(=O)(=O)c2ccc(F)cc2)cc1S(=O)(=O)NC1CCN(C(=O)c2ccc(C#N)cc2)CC1 [Example 586, N-[1-(4-cyanobenzoyl)piperidin-4-yl]-5-[(4-fluorophenyl)sulfonyl]-2-methylbenzenesulfonamide]
[1]
  IC50: 2.4 µM
[2]; [3]
  fold induction at 15 µM: 1.9
[2]; [4]
  fold induction at 15 µM: 1.1

## CN(CCNS(=O)(=O)c1cc(S(=O)(=O)c2ccccc2)ccc1C(F)(F)F)C(=O)N1CCN(C(=O)OC(C)(C)C)CC1 [Example 887, tert-butyl 4-({methyl[2-({[5-(phenylsulfonyl)-2-(trifluoromethyl)phenyl]sulfonyl}amino)ethyl]amino}carbonyl)piperazine-1-carboxylate]
[1]
  IC50: 3 µM
[2]
  EC50: 1.77 µM
  fold induction at 10 µM: 2.3

## O=C(c1ccccc1OC(F)(F)F)N1CCC(NS(=O)(=O)c2cc(S(=O)(=O)c3ccccc3)ccc2C(F)(F)F)CC1 [Example 758, 5-(phenylsulfonyl)-N-{1-[2-(trifluoromethoxy)benzoyl]piperidin-4-yl}-2-(trifluoromethyl)benzenesulfonamide]
[1]
  IC50: 0.3 µM
[2]
  EC50: 0.582 µM
  fold induction at 10 µM: 3.4

## CC(C)c1ccc(S(=O)(=O)c2ccc(F)c(Cl)c2)cc1S(=O)(=O)NCCc1ccccn1 [Example 595, 5-[(3-chloro-4-fluorophenyl)sulfonyl]-2-isopropyl-N-(2-pyridin-2-ylethyl)benzenesulfonamide]
[1]
  IC50: 1.2 µM
[2]; [3]
  fold induction at 15 µM: 3.4
[2]; [4]
  fold induction at 15 µM: 1.4

## CCc1ccc(S(=O)(=O)c2ccc(F)cc2)cc1S(=O)(=O)NCCCn1ccnc1 [Example 303, 2-ethyl-5-[(4-fluorophenyl)sulfonyl]-N-[3-(1H-imidazol-1-yl)propyl]benzenesulfonamide]
[1]
  IC50: 0.7 µM
[2]; [5]
  fold induction at 15 µM: 2.7
[2]; [6]
  fold induction at 15 µM: 0.8

## C#CCOC(=O)N1CCC(NS(=O)(=O)c2cc(S(=O)(=O)c3ccccc3)ccc2C)CC1 [Example 487, prop-2-yn-1-yl 4-({[2-methyl-5-(phenylsulfonyl)phenyl]sulfonyl}amino)piperidine-1-carboxylate]
[1]
  IC50: 0.5 µM
[2]; [3]
  fold induction at 15 µM: 2.1
[2]; [4]
  fold induction at 15 µM: 1.1

## CC(C)c1ccc(S(=O)(=O)c2ccc(N(C)CCC#N)cc2)cc1S(=O)(=O)NC1CCOCC1 [Example 580, 5-({4-[(2-cyanoethyl)(methyl)amino]phenyl}sulfonyl)-2-isopropyl-N-(tetrahydro-2H-pyran-4-yl)benzenesulfonamide]
[1]
  IC50: 0.7 µM
[2]; [3]
  fold induction at 15 µM: 2.8
[2]; [4]
  fold induction at 15 µM: 1.3

## Cc1ccc(S(=O)(=O)c2ccc(Br)cc2)cc1S(=O)(=O)NCCc1ccccn1 [Example 381, 5-[(4-bromophenyl)sulfonyl]-2-methyl-N-(2-pyridin-2-ylethyl)benzenesulfonamide]
[1]
  IC50: 4 µM
[2]; [5]
  fold induction at 15 µM: 2.1
[2]; [6]
  fold induction at 15 µM: 0.8

## CC(C)(C)OC(=O)N1CCC[C@@H](NS(=O)(=O)c2cc(S(=O)(=O)c3ccccc3)ccc2C(F)(F)F)C1 [Example 787, tert-butyl(3R)-3-({[5-(phenylsulfonyl)-2-(trifluoromethyl)phenyl]sulfonyl}amino)piperidine-1-carboxylate]
[1]
  IC50: 0.3 µM
[2]
  EC50: 0.896 µM
  fold induction at 10 µM: 3.7

## CC(C(N)=O)N1CCC(NS(=O)(=O)c2cc(S(=O)(=O)c3ccccc3)ccc2C(F)(F)F)CC1 (centres unmarked) [Example 1003, 2-[4-({[5-(phenylsulfonyl)-2-(trifluoromethyl)phenyl]sulfonyl}amino)piperidin-1-yl]propanamide]
[1]
  IC50: 0.14 µM
[2]
  EC50: 0.399 µM

## O=C(c1ccc(-c2ccccc2)nc1)N1CCC(NS(=O)(=O)c2cc(S(=O)(=O)c3ccccc3)ccc2C(F)(F)F)CC1 [Example 1024, N-{1-[(6-phenylpyridin-3-yl)carbonyl]piperidin-4-yl}-5-(phenylsulfonyl)-2-(trifluoromethyl)benzenesulfonamide]
[1]
  IC50: 0.2 µM
[2]
  EC50: 0.236 µM

## COCC(=O)N1CCC(NS(=O)(=O)c2cc(S(=O)(=O)c3ccc(F)cc3)ccc2C)CC1 [Example 589, 5-[(4-fluorophenyl)sulfonyl]-N-[1-(methoxyacetyl)piperidin-4-yl]-2-methylbenzenesulfonamide]
[1]
  IC50: 4 µM
[2]; [3]
  fold induction at 15 µM: 2.6
[2]; [4]
  fold induction at 15 µM: 1.3

## CN(CCCNS(=O)(=O)c1cc(S(=O)(=O)c2ccccc2)ccc1C(F)(F)F)C(=O)OC(C)(C)C [Example 927, tert-butyl methyl[3-({[5-(phenylsulfonyl)-2-(trifluoromethyl)phenyl]sulfonyl}amino)propyl]carbamate]
[1]
  IC50: 2.4 µM
[2]
  EC50: 4.51 µM
  fold induction at 10 µM: 2.1

## CN(C(=O)NCCNS(=O)(=O)c1cc(S(=O)(=O)c2ccccc2)ccc1C(F)(F)F)C1CCN(C(=O)OC(C)(C)C)CC1 [Example 1045, tert-butyl 4-[methyl({[2-({[5-(phenylsulfonyl)-2-(trifluoromethyl)phenyl]sulfonyl}amino)ethyl]amino}carbonyl)amino]piperidine-1-carboxylate]
[1]
  IC50: 4 µM

## N#Cc1cccc(N2CCC(NS(=O)(=O)c3cc(S(=O)(=O)c4ccccc4)ccc3C(F)(F)F)CC2)c1 [Example 986, N-[1-(3-cyanophenyl)piperidin-4-yl]-5-(phenylsulfonyl)-2-(trifluoromethyl)benzenesulfonamide]
[1]
  IC50: 0.8 µM

## O=S(=O)(NCc1cccc(Br)c1)c1cc(S(=O)(=O)c2ccccc2)ccc1C(F)(F)F [Example 994, N-(3-bromobenzyl)-5-(phenylsulfonyl)-2-(trifluoromethyl)benzenesulfonamide]
[1]
  IC50: 2.3 µM

## CN(CCNS(=O)(=O)c1cc(S(=O)(=O)c2ccccc2)ccc1C(F)(F)F)C(=O)N(C)C1CCN(C(=O)OC(C)(C)C)CC1 [Example 989, tert-butyl 4-[methyl({methyl[2-({[5-(phenylsulfonyl)-2-(trifluoromethyl)phenyl]sulfonyl}amino)ethyl]amino}carbonyl)amino]piperidine-1-carboxylate]
[1]
  IC50: 3 µM

## O=C(O)c1cccc(-c2ccc(CNS(=O)(=O)c3cc(S(=O)(=O)c4ccccc4)ccc3C(F)(F)F)cc2)c1 [Example 976, 4′-[({[5-(phenylsulfonyl)-2-(trifluoromethyl)phenyl]sulfonyl}amino)methyl]biphenyl-3-carboxylic acid]
[1]
  IC50: 6 µM

## CN(CCNS(=O)(=O)c1cc(S(=O)(=O)c2ccccc2)ccc1C(F)(F)F)CC(=O)O [Example 981, N-methyl-N-[2-({[5-(phenylsulfonyl)-2-(trifluoromethyl)phenyl]sulfonyl}amino)ethyl]glycine]
[1]
  IC50: 13 µM

## CN(CCCNS(=O)(=O)c1cc(S(=O)(=O)c2ccccc2)ccc1C(F)(F)F)C(=O)N1CCN(C(=O)OC(C)(C)C)CC1 [Example 974, tert-butyl 4-({methyl[3-({[5-(phenylsulfonyl)-2-(trifluoromethyl)phenyl]sulfonyl}amino)propyl]amino}carbonyl)piperazine-1-carboxylate]
[1]
  IC50: 4 µM
